Measurements published in patent publication US20250163074A1, “CDK Inhibitors And Their Use As Pharmaceuticals” (Prelude Therapeutics Incorporated, priority 2020, published 2025).
Where two headings read alike, the source gives them in different places.

How the values were obtained:
CDK6/Cyclin D1 = CDK6/Cyclin D1 (Homo sapiens (Human), UniProt Q00534); assay: CDK6/CyclinD1 enzymatic activity assay (TR-FRET); format: biochemical; details: CDK6/Cyclin D1 1 nM, ATP 250 μM, read-out: CDK6_D1 IC50
Procedure: CDK6/CyclinD1 Enzymatic Activity Assay
(§1) The inhibitory activity of compounds was evaluated in vitro using TR-FRET assay with white 384-well low volume microplate (Greiner Bio-One). CDK6/Cyclin D1 catalyzed phosphorylation of peptide in the presence and absence of compounds was measured and used in IC50 determination. Recombinant protein complex CDK6/Cyclin D1, expressed from insect cell, was purchased from ProQinase. Testing compounds were dissolved in DMSO at 0.1 mM and tested in 9-dose IC50 mode. The reaction mixture was prepared by mixing CDK6/Cyclin D1 (1 nM final), ULight-4E-BP1 (100 nM final, Perkinelmer, TRF0128-D), and ATP (250 μM final) in assay buffer (20 mM of HEPES pH 7.4, 1 mM of EGTA, 0.05% BSA, 0.005% Tween 20, and 1 mM TCEP). The compound of interest in DMSO was added to each well in 3-fold serial dilution by dispenser (TECAN D300E). After 20 minutes preincubation at room temperature, 0.1 μL MgCl2 (10 mM final) was added to initiate the reaction. Following a 60 minutes incubation at 37° C., the reaction was stopped by addition of 2 μL of quenching buffer consisting of Lance detection buffer (Perkinelmer CR97-100C), 2 nM LANCE Ultra Europium-anti-P-4E-BP1 (Perkinelmer, TRF0216-D), 10 mM EDTA, and incubate at room temperature for additional 60 minutes in dark. The reaction signal was measured by Envision multimode plate reader (PerkinElmer, 2102-0010). IC50 values were determined by fitting the data to the standard 4 parameters with Hill Slope using GraphPad Prism software.

[1] = tested on: MCF7 adenocarcinoma cell line; assay: Cell proliferation studies in MCF7 cells (ATP-Lite); format: cell-based; details: 10 days incubation, cell viability by ATP-Lite luminescence, read-out: PROLIFERATION_CTG_MCF7 IC50
Procedure: Cell Proliferation Studies in MCF7 Cells
Cell proliferation studies were conducted in MCF7 adenocarcinoma cell line. Cells were maintained in DMEM (Corning, Catalog #: 10-013-CV) supplemented with 10% v/v FBS (Gibco, Catalog #: 26140-079), 1% v/v Penicillin Streptomycin (Gibco, Catalog #15140-122) Cells were seeded in 384-well plates at a density of 100 or 200 cells/well. Compounds dissolved in DMSO were plated in quadruplicate using a digital dispenser (D300E, Tecan) and tested on a 9-point 3-fold serial dilution. Cells were incubated for 10 days in a 37° C. active humidified incubator at 5% CO2. A media exchange and second compound addition were performed on day 5. Cell viability was measured using the ATP-Lite 1-Step Luminescence reagent (Perkin Elmer, Catalog #: 6016731) as per manufacturer's instructions. Luminescence signal was measured with a multimode plate reader (Envision 2105, Perkin Elmer). Raw data files were imported to Dotmatics Screening Ultra for IC50 analysis. Luminescence values were normalized to both background and DMSO controls to obtain a percentage of viable cells relative to DMSO vehicle control.

CDK4/Cyclin D1 = CDK4/Cyclin D1 (Homo sapiens (Human), UniProt P11802); assay: CDK4/CyclinD1 enzymatic activity assay (TR-FRET); format: biochemical; details: CDK4/CyclinD1 1 nM, ATP 2 mM, read-out: CDK4_D1 IC50
Procedure: CDK4/CyclinD1 Enzymatic Activity Assay
as §1, with “Bio-One). CDK4/Cyclin” for “Bio-One). CDK6/Cyclin”, “was measured.” for “was measured and used in”, “complex CDK4/Cyclin” for “complex CDK6/Cyclin”, “mixing CDK4/CyclinD1” for “mixing CDK6/Cyclin D1”, “ATP (2 mM” for “ATP (250 μM”, “temperature,” for “temperature, 0.1 μL”

Sequence of CDK4/Cyclin D1 (P11802 whole entry): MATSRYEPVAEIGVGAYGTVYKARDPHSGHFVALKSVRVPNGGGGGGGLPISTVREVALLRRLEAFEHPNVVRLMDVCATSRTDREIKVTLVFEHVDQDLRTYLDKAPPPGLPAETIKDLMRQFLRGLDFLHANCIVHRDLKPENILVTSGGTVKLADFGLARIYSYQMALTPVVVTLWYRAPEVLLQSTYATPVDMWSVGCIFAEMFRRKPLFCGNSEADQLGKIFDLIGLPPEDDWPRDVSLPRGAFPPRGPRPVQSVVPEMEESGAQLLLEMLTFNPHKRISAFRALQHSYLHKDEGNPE
Sequence of CDK4/Cyclin D1 (P24385 whole entry partner): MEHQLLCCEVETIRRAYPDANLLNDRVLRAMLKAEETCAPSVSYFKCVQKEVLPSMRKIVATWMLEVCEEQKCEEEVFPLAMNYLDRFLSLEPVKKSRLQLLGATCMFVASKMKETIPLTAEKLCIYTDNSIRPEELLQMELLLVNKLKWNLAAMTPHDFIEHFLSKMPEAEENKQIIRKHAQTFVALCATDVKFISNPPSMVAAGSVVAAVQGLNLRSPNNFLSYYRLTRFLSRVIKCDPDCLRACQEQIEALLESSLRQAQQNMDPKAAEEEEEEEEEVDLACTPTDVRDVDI
Sequence of CDK6/Cyclin D1 (Q00534 whole entry): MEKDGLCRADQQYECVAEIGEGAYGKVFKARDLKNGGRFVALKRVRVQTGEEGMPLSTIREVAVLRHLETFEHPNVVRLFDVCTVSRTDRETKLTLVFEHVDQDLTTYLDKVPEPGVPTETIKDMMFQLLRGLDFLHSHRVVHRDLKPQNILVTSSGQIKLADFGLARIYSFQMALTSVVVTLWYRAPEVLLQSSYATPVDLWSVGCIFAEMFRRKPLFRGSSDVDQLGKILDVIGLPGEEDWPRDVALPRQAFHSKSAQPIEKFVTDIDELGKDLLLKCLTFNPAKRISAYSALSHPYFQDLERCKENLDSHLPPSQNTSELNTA
Sequence of CDK6/Cyclin D1 (P24385 whole entry partner): as the sequence (P24385 whole entry partner) above

SMILES | IC50 (CDK6/Cyclin D1) [nM] | IC50 ([1]; Homo sapiens, 240 h) [nM] | IC50 (CDK4/Cyclin D1) [nM] | IC50 [1] [nM]
CN1CCC(c2ccc(Nc3ncc(F)c(-c4cc5c(s4)C4(CCCCC4)CN(C)C5=O)n3)nc2)CC1 [Example 5, 2′-(5-Fluoro-2-((5-(1-methylpiperidin-4-yl)pyridin-2-yl)amino)pyrimidin-4-yl)-5′-methyl-5′,6′-dihydro-4′H-spiro[cyclohexane-1,7′-thieno[3,2-c]pyridin]-4′-one] | 20 to 200 | ≤ 20 | ≤ 20 | 
CN1CCC(c2ccc(Nc3ncc(F)c(-c4cc5c(s4)C4(CC4)N(C)C5=O)n3)nc2)CC1 [Example 8] | ≤ 20 |  | ≤ 20 | 20 to 200
CN1CCC(c2ccc(Nc3ncc(F)c(-c4sc5c(c4Cl)C(=O)N(C)C54CC4)n3)nc2)CC1 [Example 9, 3′-chloro-2′-(5-Fluoro-2-((5-(1-methylpiperidin-4-yl)pyridin-2-yl)amino)pyrimidin-4-yl)-5′-methylspiro[cyclopropane-1,6′-thieno[2,3-c]pyrrol]-4′(5′H)-one] | ≤ 20 | 20 to 200 | ≤ 20 | 
CN1CCC(c2ccc(Nc3ncc(F)c(-c4sc5c(c4C(F)(F)F)C(=O)N(C)C54CC4)n3)nc2)CC1 [Example 10, 2′-(5-Fluoro-2-((5-(1-methyl-piperidin-4-yl)pyridin-2-yl)amino)pyrimidin-4-yl)-5′-methyl-3′-(trifluoromethyl)spiro[cyclopropane-1,6′-thieno[2,3-c]pyrrol]-4′(5′H)-one] | ≤ 20 | 20 to 200 | ≤ 20 | 
CCN1CCN(Cc2ccc(Nc3ncc(F)c(-c4sc5c(c4C)C(=O)N(C)C54CC4)n3)nc2)CC1 [Example 13, 2′-(2-((5-((4-Ethylpiperazin-1-yl)methyl)pyridin-2-yl)amino)-5-fluoropyrimidin-4-yl)-3′,5′-dimethylspiro[cyclopropane-1,6′-thieno[2,3-c]pyrrol]-4′(5′H)-one] | ≤ 20 | 20 to 200 | ≤ 20 | 
CCN1CC2(C1)CN(c1ccc(Nc3ncc(F)c(-c4cc5c(s4)C4(CCCC4)N(CC)C5=O)n3)nc1)C2 [Example 21, 5′-Ethyl-2′-(2-((5-(6-ethyl-2,6-diazaspiro[3.3]heptan-2-yl)pyridin-2-yl)amino)-5-fluoropyrimidin-4-yl)spiro[cyclopentane-1,6′-thieno[2,3-c]pyrrol]-4′(5′H)-one] | ≤ 20 | 20 to 200 | ≤ 20 | 
CCN1C(=O)c2cc(-c3nc(Nc4ccc(C5CCN(C)CC5)cn4)ncc3F)sc2C12CCCC2 [Example 22, 5′-Ethyl-2′-(5-fluoro-2-((5-(1-methylpiperidin-4-yl)pyridin-2-yl)amino)pyrimidin-4-yl)spiro[cyclopentane-1,6′-thieno[2,3-c]pyrrol]-4′(5′H)-one] | 20 to 200 | 20 to 200 | ≤ 20 | 
CCN1CCC(c2ccc(Nc3ncc(F)c(-c4cc5c(s4)C4(CCCC4)N(C)C5=O)n3)nc2)CC1 [Example 23, 2′-(2-((5-(1-Ethylpiperidin-4-yl)pyridin-2-yl)amino)-5-fluoropyrimidin-4-yl)-5′-methylspiro[cyclopentane-1,6′-thieno[2,3-c]pyrrol]-4′(5′H)-one] | ≤ 20 | 20 to 200 | ≤ 20 | 
CN1CCC(c2ccc(Nc3ncc(F)c(-c4sc5c(c4C(F)(F)F)C(=O)N(C)C54CCCC4)n3)nc2)CC1 [Example 26, 2′-(5-Fluoro-2-((5-(1-methylpiperidin-4-yl)pyridin-2-yl)amino)pyrimidin-4-yl)-5′-methyl-3′-(trifluoromethyl)spiro[cyclopentane-1,6′-thieno[2,3-c]pyrrol]-4′(5′H)-one] | ≤ 20 | ≤ 20 | ≤ 20 | 
CN1CCC(c2ccc(Nc3ncc(F)c(-c4sc5c(c4Cl)C(=O)N(C)C54CCCC4)n3)nc2)CC1 [Example 27, 3′-Chloro-2′-(5-fluoro-2-((5-(1-methylpiperidin-4-yl)pyridin-2-yl)amino)pyrimidin-4-yl)-5′-methylspiro[cyclopentane-1,6′-thieno[2,3-c]pyrrol]-4′(5′H)-one] | ≤ 20 | ≤ 20 | ≤ 20 | 
Cc1c(-c2nc(Nc3ccc(C4CCCN(C)C4)cn3)ncc2F)sc2c1C(=O)N(C)CC21CC1 (stereo not shown) [Example 30, 2′-(5-Fluoro-2-((5-(1-methyl-piperidin-3-yl)pyridin-2-yl)amino)pyrimidin-4-yl)-3′,5′-dimethyl-5′,6′-dihydro-4′H-spiro[cyclopropane-1,7′-thieno[3,2-c]pyridin]-4′-one] | ≤ 20 | 20 to 200 | ≤ 20 | 
Cc1c(-c2nc(Nc3ccc(C4CCN(C5CCOC5)CC4)cn3)ncc2F)sc2c1C(=O)N(C)CC21CC1 (stereo not shown) [Example 32, 2′-(5-Fluoro-2-((5-(1-(tetrahydrofuran-3-yl)piperidin-4-yl)pyridin-2-yl)amino)pyrimidin-4-yl)-3′,5′-dimethyl-5′,6′-dihydro-4′H-spiro[cyclopropane-1,7′-thieno[3,2-c]pyridin]-4′-one] | ≤ 20 | 20 to 200 | ≤ 20 | 
Cc1c(-c2nc(Nc3ccc(N4CC5(C4)CN(C(C)C)C5)cn3)ncc2F)sc2c1C(=O)N(C)CC21CC1 [Example 34, 2′-(5-Fluoro-2-((5-(6-isopropyl-2,6-diazaspiro[3.3]heptan-2-yl)pyridin-2-yl)amino)pyrimidin-4-yl)-3′,5′-dimethyl-5′,6′-dihydro-4′H-spiro[cyclopropane-1,7′-thieno[3,2-c]pyridin]-4′-one] | ≤ 20 | ≤ 20 | ≤ 20 | 
Cc1c(-c2nc(Nc3ccc(N4CCC5(CC4)CN(C)C5)cn3)ncc2F)sc2c1C(=O)N(C)CC21CC1 [Example 36, 2′-(5-Fluoro-2-((5-(2-methyl-2,7-diazaspiro[3.5]nonan-7-yl)pyridin-2-yl)amino)pyrimidin-4-yl)-3′,5′-dimethyl-5′,6′-dihydro-4′H-spiro[cyclopropane-1,7′-thieno[3,2-c]pyridin]-4′-one] | ≤ 20 | 20 to 200 | ≤ 20 | 
CN1CC2(CCCC2)c2sc(-c3nc(Nc4ccc(N5CCN6CCC5CC6)cn4)ncc3F)cc2C1=O [Example 64, 2-[2-[[5-(1,4-Diazabicyclo[3.2.2]nonan-4-yl)pyridin-2-yl]amino]-5-fluoropyrimidin-4-yl]-5-methylspiro[6H-thieno[3,2-c]pyridine-7,1′-cyclopentane]-4-one] |  | 20 to 200 | ≤ 20 | 
Cc1c(-c2nc(Nc3ccc(C4CCN(C(C)C)CC4)nn3)ncc2F)sc2c1C(=O)N(C)CC21CC1 [Example 83, 2′-(5-Fluoro-2-((6-(1-isopropylpiperidin-4-yl)pyridazin-3-yl)amino)pyrimidin-4-yl)-3′,5′-dimethyl-5′,6′-dihydro-4′H-spiro[cyclopropane-1,7′-thieno[3,2-c]pyridin]-4′-one] |  | 20 to 200 | ≤ 20 | 
